# Reference: US9199939B2, “Quinoline amide M1 receptor positive allosteric modulators” (Merck Sharp & Dohme Corp., priority 2009, dated 2015)
# pEC50: −log10 of the molar value.
# Target: T1, acetylcholine muscarinic M1 receptor (Homo sapiens, UniProt P11229)
# T1 construct: expressed in transfected cells; host or cells: CHOnfat (CHO cells; also called CHOK1/hM1)
# T1 sequence (P11229 1-460): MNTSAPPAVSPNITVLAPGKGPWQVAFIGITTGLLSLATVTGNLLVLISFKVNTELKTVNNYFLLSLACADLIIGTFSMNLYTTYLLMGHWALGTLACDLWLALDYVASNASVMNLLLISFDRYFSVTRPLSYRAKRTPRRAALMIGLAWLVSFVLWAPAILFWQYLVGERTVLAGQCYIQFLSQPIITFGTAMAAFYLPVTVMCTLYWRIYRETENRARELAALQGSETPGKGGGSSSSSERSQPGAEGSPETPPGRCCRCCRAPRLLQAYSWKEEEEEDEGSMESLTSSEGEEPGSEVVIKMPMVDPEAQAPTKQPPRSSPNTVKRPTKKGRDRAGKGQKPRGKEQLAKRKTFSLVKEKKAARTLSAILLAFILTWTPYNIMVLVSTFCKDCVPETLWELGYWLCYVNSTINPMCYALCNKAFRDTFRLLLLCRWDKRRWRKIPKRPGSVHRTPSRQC
# Test: Muscarinic M1 FLIPR intracellular calcium assay for positive allosteric modulators
# Type: cell-based
# Settings: not given
# Protocol: The assay studies the effect of one or several concentrations of test compounds on basal or acetylcholine-stimulated Ca^2+ levels using FLIPR.
# Compounds are prepared and subjected to a preincubation period of 4 min. Thereafter, a single EC20 concentration of acetylcholine is added to each well (3 nM final). The intracellular Ca^2+ level of each sample is measured and compared to an acetylcholine control to determine any modulatory activity.
# Cells: CHOnfat/hM1, hM2, hM3 or hM4 cells are plated 24 hr before the assay at a density of 18,000 cells/well (100 μL) in a 384 well plate. CHOnfat/hM1 and CHOnfat/hM3 Growth Medium: 90% DMEM (Hi Glucose); 10% HI FBS; 2 mM L-glutamine; 0.1 mM NEAA; Pen-Strep; and 1 mg/ml Geneticin, are added. For M2Gqi5CHOnfat and M4Gqi5CHOnfat cells, an additional 600 ug/ml hygromycin is added.
# Equipment: 384 well plate, 120 μL addition plate; 96-well Whatman 2 ml Uniplate Incubator, 37° C., 5% CO2; Skatron EMBLA-384 Plate Washer; Multimek Pipetting System; Genesis Freedom 200 System; Mosquito System; Temo Nanolitre Pipetting System; and FLIPR^384 Fluorometric Imaging Plate Reader System are used.
# Buffers. Assay Buffer: Hanks Balanced Salt Solution, with 20 mM Hepes, 2.5 mM Probenecid (Sigma P-8761) first dissolved in 1 N NaOH, 1% Bovine Serum Albumin (Sigma A-9647). Dye Loading Buffer: Assay Buffer plus 1% Fetal Bovine Serum and Fluo-4AM/Pluronic Acid Mixture. 2 mM Fluo-4AM ester stock in DMSO (Molecular Probes F-14202) Concentration of 2 μM in buffer for a final concentration of 1 μM in Assay. 20% Pluronic Acid Solution stock, with concentration of 0.04% in Buffer, 0.02% in Assay.
# 65 μL of 2 mM Fluo-4AM are mixed with 130 μL of 20% Pluronic Acid. The resulting solution and 650 μL FBS is added to the assay buffer for a total volume of 65 mL. Positive Controls: 4-Br-A23187: 10 mM in DMSO; final concentration 10 μM. Acetylcholine: 10 mM in water, working stock at both 20 μM and 30 μM in assay buffer, final concentration of 10 μM. This is used to check the maximum stimulation of the CHOK1/hM1 cells. 20 μM (2×) acetylcholine is added in the preincubation part of the assay, and the 30 μM (3×) stock is added in the second part. (EC20)Acetylcholine: 10 mM in water, working stock of 9 nM (3×), and final concentration in assay is 3 nM. This is used after the preincubation with test compounds. Addition of the EC20 Acetylcholine to each well with a test compound will ascertain any modulator activity. 24 wells contain 3 nM Acetylcholine alone as a control.
# Determining Activity of Putative Compounds:
# Screening Plate Compounds are titrated in 96-well plates (columns 2-11), 100% DMSO, started at a concentration of 15 mM (150× stock concentration), and 3-fold serial dilutions using Genesis Freedom200 System. Four 96-well plates are combined into a 384-well plate using Mosquito Nanolitre Pipetting System by transferring 1 μl of serial diluted compounds to each well, and 1 mM acetylcholine (100× stock concentration) were added as a control. Using Temo, 49 μl assay buffer is added to each well of the 384-well plate right before assay.
# In a 96-well Whatman 2 ml Uniplate, 9 nM Acetylcholine (3×) is pipetted into wells corresponding to the screening compounds, and into control wells. The 30 μM acetylcholine control (3×) is added into control wells, and the 3× agonist plate is transferred into a 384 well plate.
# Cells are washed three times with 100 μL of buffer, leaving 30 μL of buffer in each well. Using Multimek, 30 μL of Dye Loading Buffer is added into each well and incubated at 37° C., 5% CO2 for up to one hr.
# After 60 min, the cells are washed three times with 100 μL of buffer, leaving 30 μL of buffer in each well. The cell plate, screening plate, and agonist addition plates are placed on the platform in the FLIPR and the door closed. A signal test to check background fluorescence and basal fluorescence signal is performed. Laser intensity is adjusted if necessary. […]
row,SMILES,pEC50
1,"COc1ccc(Cc2cc(C(=O)N[C@H]3CCOC[C@@H]3O)nc3c(F)cccc23)cn1 [Example 19, 8-Fluoro-N-[(3R,4S)-3-hydroxytetrahydro-2H-pyran-4-yl]-4-[(6-methoxypyridin-3-yl)methyl]quinoline-2-carboxamide]",7.72

# Same assay, conditions: IP = inflection point calculated from FLIPR values; CHOnfat/hM1 cells; 4 min preincubation, then EC20 acetylcholine (3 nM final); read-out: IP Value
row,SMILES,pEC50
1,"O=C(N[C@H]1CCCC[C@@H]1O)c1cc(Cc2cccnc2)c2ccccc2n1 [Example 6, N-[(1S,2S)-2-Hydroxycyclohexyl]-4-(pyridin-3-ylmethyl)quinoline-2-carboxamide]",7.09
2,"Cn1cc(-c2ccc(Cc3cc(C(=O)N[C@H]4CCCC[C@@H]4F)nc4ccccc34)cn2)cn1 [Example 9, N-[(1S,2S)-2-Fluorocyclohexyl]-4-{[6-(1-methyl-1H-pyrazol-4-yl)pyridin-3-yl]methyl}quinoline-2-carboxamide]",6.58
3,"Cn1cc(-c2ccc(Cc3cc(C(=O)N[C@H]4CCCC[C@@H]4O)nc4ccccc34)cn2)cn1 [Example 5, N-[(1S,2S)-2-Hydroxycyclohexyl]-4-{[6-(1-methyl-1H-pyrazol-4-yl)pyridin-3-yl]methyl}quinoline-2-carboxamide]",8.22
4,"Cn1cc(-c2ccc(Cc3cc(C(=O)N[C@H]4COCC[C@@H]4O)nc4ccccc34)cn2)cn1 [Example 10, N-[(3S,4S)-4-Hydroxytetrahydro-2H-pyran-3-yl]-4-{[6-(1-methyl-1H-pyrazol-4-yl)pyridin-3-yl]methyl}quinoline-2-carboxamide]",7.77
5,"Cc1ccc(Cc2cc(C(=O)N[C@H]3CCCC[C@@H]3O)nc3ccccc23)cn1 [Example 2, N-[(1S,2S)-2-Hydroxycyclohexyl]-4-[(6-methylpyridin-3-yl)methyl]quinoline-2-carboxamide]",6.84
6,"O=C(N[C@H]1CCCC[C@@H]1O)c1cc(Cc2ccc(Cl)nc2)c2ccccc2[n+]1[O-] [Example 3, 4-[(6-Chloropyridin-3-yl)methyl]-N-[(1S,2S)-2-hydroxycyclohexyl]quinoline-2-carboxamide 1-oxide]",6.83
7,"Cn1cc(-c2ccc(Cc3cc(C(=O)N[C@H]4CCCC[C@@H]4O)nc4ccccc34)c[n+]2[O-])cn1 [Example 8, N-[(1S,2S)-2-Hydroxycyclohexyl]-4-{[6-(1-methyl-1H-pyrazol-4-yl)-1-oxidopyridin-3-yl]methyl}quinoline-2-carboxamide]",7.68
8,"COc1ccc(Cc2cc(C(=O)N[C@H]3CCOC[C@@H]3O)nc3ccccc23)cn1 [Example 11, N-[(3R,4S)-3-Hydroxytetrahydro-2H-pyran-4-yl]-4-[(6-methoxypyridin-3-yl)methyl]quinoline-2-carboxamide]",7.28
9,"CSc1ccc(Cc2cc(C(=O)N[C@H]3CCCC[C@@H]3O)nc3ccccc23)cn1 [Example 7, N-[(1S,2S)-2-Hydroxycyclohexyl]-4-{[6-(inethylsulfanyl)pyridin-3-yl]methyl}quinoline-2-carboxamide]",7.43
10,"O=C(N[C@H]1CCCC[C@@H]1O)c1cc(Cc2ccc(Cl)nc2)c2ccccc2n1 [Example 1, 4-[(6-Chloropyridin-3-yl)methyl]-N-[(1S,2S)-2-hydroxycyclohexyl]quinoline-2-carboxamide]",7.39

# More lines, now with the values ahead:
row,pEC50,SMILES
1,7.48,"COc1ccc(Cc2cc(C(=O)N[C@H]3CCOC[C@@H]3O)nc3c(F)ccc(F)c23)cn1 [Example 24, 5,8-Difluoro-N-[(3R,4S)-3-hydroxytetrahydro-2H-pyran-4-yl]-4-[(6-methoxypyridin-3-yl)methyl]quinoline-2-carboxamide]"
2,6.50,"CSc1ncc(Cc2cc(C(=O)N[C@H]3CCOC[C@@H]3O)nc3ccccc23)cn1 [Example 14, N-[(3R,4S)-3-Hydroxytetrahydro-2H-pyran-4-yl]-4-{[2-(methylsulfanyl)pyrimidin-5-yl]methyl}quinoline-2-carboxamide]"
3,6.61,"COc1ccc(C(F)c2cc(C(=O)N[C@H]3CCOC[C@@H]3O)nc3c(OC)cccc23)cn1 (stereo partly drawn) [Example 18, 4-[Fluoro(6-methoxypyridin-3-yl)methyl]-N-[(3R,4S)-3-hydroxytetrahydro-2H-pyran-4-yl]-8-methoxyquinoline-2-carboxamide]"
4,7.19,"O=C(N[C@H]1CCOC[C@@H]1O)c1cc(Cc2ccc(O)nc2)c2cccc(F)c2n1 [Example 20, 8-Fluoro-4-[(6-hydroxypyridin-3-yl)methyl]-N-[(3R,4S)-3-hydroxytetrahydro-2H-pyran-4-yl]quinoline-2-carboxamide]"
5,7.34,"COc1cc(Cc2cc(C(=O)N[C@H]3CCOC[C@@H]3O)nc3ccccc23)ccn1 [Example 13, N-[(3R,4S)-3-Hydroxytetrahydro-2H-pyran-4-yl]-4-[(2-methoxypyridin-4-yl)methyl]quinoline-2-carboxamide]"
6,7.66,"O=C(N[C@H]1CCOC[C@@H]1O)c1cc(Cc2ccc(Cl)nc2)c2cccc(F)c2n1 [Example 16, 4-[(6-Chloropyridin-3-yl)methyl]-8-fluoro-N-[(3R,4S)-3-hydroxytetrahydro-2H-pyran-4-yl]quinoline-2-carboxamide]"
7,7.57,"COc1cc(Cc2cc(C(=O)N[C@H]3CCOC[C@@H]3O)nc3c(F)cccc23)ccn1 [Example 22, 8-Fluoro-N-[(3R,4S)-3-hydroxytetrahydro-2H-pyran-4-yl]-4-[(2-methoxypyridin-4-yl)methyl]quinoline-2-carboxamide]"
8,7.74,"O=C(N[C@H]1CCOC[C@@H]1O)c1cc(Cc2ccc(C(F)F)nc2)c2cccc(F)c2n1 [Example 17, 4-{[6-(Difluoromethyl)pyridin-3-yl]methyl}-8-fluoro-N-[(3R,4S)-3-hydroxytetrahydro-2H-pyran-4-yl]quinoline-2-carboxamide]"
9,7.22,"CCOc1ccc(Cc2cc(C(=O)N[C@H]3CCOC[C@@H]3O)nc3ccccc23)cn1 [Example 12, 4-[(6-Ethoxypyridin-3-yl)methyl]-N-[(3R,4S)-3-hydroxytetrahydro-2H-pyran-4-yl]quinoline-2-carboxamide]"
10,6.39,"COc1cc(Cc2cc(C(=O)N[C@H]3CCOC[C@@H]3O)nc3c(F)cccc23)cc[n+]1[O-] [Example 23, 8-Fluoro-N-[(3R,4S)-3-hydroxytetrahydro-2H-pyran-4-yl]-4-[(2-methoxy-1-oxidopyridin-4-yl)methyl]quinoline-2-carboxamide]"
11,6.68,"COc1ccc(Cc2cc(C(=O)N[C@H]3CCOC[C@@H]3O)nc3c(F)cccc23)c[n+]1[O-] [Example 21, 8-Fluoro-N-[(3R,4S)-3-hydroxytetrahydro-2H-pyran-4-yl]-4-[(6-methoxy-1-oxidopyridin-3-yl)methyl]quinoline-2-carboxamide]"
